In patent US20200199537A1, “LIVER ORGANOID COMPOSITIONS AND METHODS OF MAKING AND USING SAME” (Children's Hospital Medical Center, priority 2017, published 2020):
Like-named read-outs stand apart in the source and are kept apart here. Each block holds one molecule with its values, some of them ahead of it.

Experiments:
[1] = target: MRP2 (Homo sapiens, UniProt Q92887); conditions: previously reported; cited from earlier work
[2] = test system: bile transport activity (efflux of fluorescein diacetate) in human liver organoids
[3] = test system: CLF excretion into iPSC-liver organoids; conditions: human
[4] = test system: lipotoxic human liver organoids; assay: Evaluation of viability in organoids on vulnerable (lipotoxic, oleic acid) condition; format: cell-based
Procedure: Next, 50 μM of Troglitazone was treated with or without 50 μM NAC for 24 h. […] Images were captured sequentially using fluorescent microscopy BZ-9000.

[5] = test system: human liver organoids; conditions: for cell viability: human, 50 μM
[6] = test system: human liver organoids; assay: Lipid accumulation in organoids after oleic acid treatment; format: cell-based; conditions: 3 days after treatment, 800 μM
Procedure: Images were captured sequentially using fluorescent microscopy BZ-9000. […] The following regents or kits were used: BODIPY® 493/503 for lipids (Thermo Fisher Scientific), and SiR Actin Kit for cytoskeleton (USA Scientific, FL, USA), CellROX® Green Reagent for ROS (Fisher Scientific), TMRM (Thermo Fisher Scientific) for mitochondria. […] ROS production, mitochondria size and number were analyzed by IMARIS8.

MRP2, sequence (Q92887 whole entry): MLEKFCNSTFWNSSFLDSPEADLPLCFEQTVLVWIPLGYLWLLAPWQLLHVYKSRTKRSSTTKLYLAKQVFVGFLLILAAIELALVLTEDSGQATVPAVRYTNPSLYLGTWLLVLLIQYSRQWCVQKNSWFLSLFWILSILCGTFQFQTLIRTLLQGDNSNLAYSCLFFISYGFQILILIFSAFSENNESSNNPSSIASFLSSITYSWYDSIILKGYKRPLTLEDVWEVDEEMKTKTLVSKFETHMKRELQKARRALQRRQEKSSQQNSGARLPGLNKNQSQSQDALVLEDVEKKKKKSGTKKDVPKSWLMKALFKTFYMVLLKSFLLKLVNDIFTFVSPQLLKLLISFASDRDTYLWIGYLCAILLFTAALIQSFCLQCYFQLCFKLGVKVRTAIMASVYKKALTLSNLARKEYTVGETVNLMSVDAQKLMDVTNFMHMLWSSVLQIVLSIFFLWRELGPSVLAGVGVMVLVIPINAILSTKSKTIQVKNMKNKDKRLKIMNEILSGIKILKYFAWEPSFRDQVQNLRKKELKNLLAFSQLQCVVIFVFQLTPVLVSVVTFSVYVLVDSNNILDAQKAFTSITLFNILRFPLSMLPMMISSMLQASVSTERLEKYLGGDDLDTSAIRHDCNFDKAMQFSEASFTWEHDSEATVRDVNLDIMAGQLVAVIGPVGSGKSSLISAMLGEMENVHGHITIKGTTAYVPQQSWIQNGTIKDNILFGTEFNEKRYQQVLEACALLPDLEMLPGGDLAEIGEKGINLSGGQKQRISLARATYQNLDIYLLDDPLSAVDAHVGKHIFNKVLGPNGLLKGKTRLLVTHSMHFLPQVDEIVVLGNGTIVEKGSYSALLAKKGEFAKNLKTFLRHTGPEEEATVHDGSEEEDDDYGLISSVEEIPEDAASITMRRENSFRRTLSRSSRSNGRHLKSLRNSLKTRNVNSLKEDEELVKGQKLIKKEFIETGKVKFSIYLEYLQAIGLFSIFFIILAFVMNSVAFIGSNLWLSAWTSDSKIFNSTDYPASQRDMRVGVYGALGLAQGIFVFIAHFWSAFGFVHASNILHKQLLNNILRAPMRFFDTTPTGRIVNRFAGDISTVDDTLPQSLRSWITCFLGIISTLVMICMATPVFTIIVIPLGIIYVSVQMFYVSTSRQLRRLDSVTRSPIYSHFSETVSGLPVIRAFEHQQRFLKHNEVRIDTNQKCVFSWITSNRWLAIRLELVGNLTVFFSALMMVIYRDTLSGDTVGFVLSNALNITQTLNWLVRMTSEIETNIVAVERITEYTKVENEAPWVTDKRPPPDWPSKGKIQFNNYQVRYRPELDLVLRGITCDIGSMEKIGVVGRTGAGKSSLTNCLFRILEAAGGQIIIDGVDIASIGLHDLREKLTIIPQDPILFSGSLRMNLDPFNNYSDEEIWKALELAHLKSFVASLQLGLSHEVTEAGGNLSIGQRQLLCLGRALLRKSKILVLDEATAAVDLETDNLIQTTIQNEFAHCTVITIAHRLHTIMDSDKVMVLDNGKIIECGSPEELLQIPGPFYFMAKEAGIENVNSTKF

Structure (SMILES): COc1ccccc1Oc1c(NS(=O)(=O)c2ccc(C(C)(C)C)cc2)nc(-c2ncccn2)nc1OCCO [Bosentan]
export by efflux transporter MRP2 [1]: mediates export | efflux of FD [2]: significantly decreased | specificity of drug induced cholestasis to CYP2C9*2 iPSC lines [3]: specific to CYP2C9 poor metabolizer donor-derived HLO

Structure (SMILES): CC(=O)N[C@@H](CS)C(=O)O [NAC, N-acetylcysteine]
cell viability (rescue from Troglitazone toxicity) ([4]; lipotoxic condition, 50 μM Troglitazone with 50 μM NAC, 24 h): significantly improved

Structure (SMILES): CN(CCOc1ccc(CC2SC(=O)NC2=O)cc1)c1ccccn1 (centres unmarked) [Rosiglitazone]
vulnerability of steatotic organoids to drug toxicity [4]: vulnerable

Structure (SMILES): CCCCCCCC/C=C\CCCCCCCC(=O)O [oleic acid]
lipid accumulation in organoids [6]: intense

Continued, in another order:

efflux of FD [2]: significantly decreased
Structure (SMILES): CCc1nn(CCCN2CCN(c3cccc(Cl)c3)CC2)c(=O)n1CCOc1ccccc1 [Nefazodone]
cell viability relative to TOL, DICLO and BOS [5]: significantly lowered

efflux of FD [2]: significantly decreased
Structure (SMILES): Cc1c(C)c2c(c(C)c1O)CCC(C)(COc1ccc(CC3SC(=O)NC3=O)cc1)O2 (centres unmarked) [Troglitazone]
cell viability relative to TOL, DICLO and BOS [5]: significantly lowered | cell viability ([5]; 24 h): 85% | cell viability ([5]; 72 h): 67% | cell viability compared to control ([4]; lipotoxic condition (800 μM oleic acid 3 days), 50 μM drug, 24 h): −40% | organoid morphology after treatment ([4]; lipotoxic condition, 24 h): massive fragmentation of organoids
